In ChEMBL document CHEMBL1151397, “The Alkaloids of Stephania glabra” (1982):

Tested on: Ileum
Test: Spasmolytic activity in guinea pig ileum assessed as blockade of muscle contractions at 25 ug
Format: functional, Cavia porcellus

`COc1cc2c3c(c1OC)C1(C=CC(=O)C=C1)C[C@H]3N(C)CC2.Cl` [PRONUCIFERINE HYDROCHLORIDE] gave an Activity of 75%.
